Assay results taken from EP4722213A1, “NITROGEN-CONTAINING FUNCTIONAL GROUP-SUBSTITUTED PYRIDAZINOPYRIDONE DERIVATIVE AND USE THEREOF” (Sichuan Huiyu Pharmaceutical Co., Ltd., priority 2023, dated 2024).
Where two headings read alike, the source gives them in different places.

Assays:
[1] = Rat liver microsomal metabolic stability; format: in vitro ADME; conditions: rat liver microsomes
Outline: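 Rat liver microsomes (1 mg/mL working solution) with test compound (working solution 100 µM) were pre-incubated 5 min at 37 °C, then started with NADPH (4.0 mM working solution). Residual compound measured by LC-MS/MS over time. T1/2 taken from first-order decay, scaled to CLint and hepatic CL with fu = 1.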

CYP2C9 = molecular target: T1, CYP2C9 (Homo sapiens, UniProt P11712); assay: Inhibition of hepatic drug-metabolizing enzymes in human liver microsomes; format: in vitro ADME
T1 construct: human liver microsomes were used as the CYP450 enzyme source; from tissue; host or cells: human liver microsomes
From the text: (§1) The main site of drug metabolism is the liver, and the main component of the mixed-function oxidase system present in the liver is the CYP450 enzyme. This enzyme system causes most clinically observed drug-drug interactions, which in turn leads to an increased incidence of adverse drug reactions. CYP450 is a group of supergene family composed of many isozymes, wherein CYP3A4 acts as a major metabolizing enzyme and is involved in the metabolism of nearly half of clinically used drugs. Similarly, CYP2C9 and CYP2C19 also act as important metabolizing enzymes and are involved in the metabolism of various drugs clinically. Therefore, evaluating the risk of drug-drug interactions by testing the inhibitory activity of compounds on CYP450 enzymes at an early stage can improve the safety of medication use.
(§2) In the present disclosure, human liver microsomes were used as the CYP450 enzyme source. The specific probe substrates for each CYP isoenzyme (wherein CYP3A4 used two substrates, midazolam and testosterone, denoted as CYP3A4-M and CYP3A4-T respectively) were incubated with a series of concentrations of the test compound in the presence of the cofactor NADPH. The production amount of metabolites of probe substrates in the incubation system was determined by LC-MS/MS, and the IC50 values of the test compound against each CYP450 enzyme subtype were calculated to evaluate its inhibitory effect on each CYP450 enzyme subtype. During the experiment, 49 µL of PBS, 50 µL of probe substrate, and 50 µL of human liver microsome working solution were sequentially added to the incubation system, followed by the addition of 1 µL of the test compound working solution at each concentration, and the mixture was mixed well. After pre-incubation at 37°C for 5 min, 50 µL of NADPH was added to initiate the reaction. After incubation for the corresponding time, an appropriate amount of ice-cold acetonitrile containing an internal standard was added to terminate the reaction. The mixture was vortexed to mix well, centrifuged, and the supernatant was taken. The supernatant was injected into LC-MS/MS to determine the production amount of metabolites of the probe substrate. Taking the enzyme activity at the 0-concentration point (characterized by the production amount of metabolites) as 100%, the percentage of residual enzyme activity of metabolites at different concentrations of the test compound was calculated. IC50 was calculated by the residual enzyme activity using Graphpad Prism software.

CYP2C19 = molecular target: T2, CYP2C19 (Homo sapiens, UniProt P33261); assay: as above; format: in vitro ADME
T2 construct: human liver microsomes were used as the CYP450 enzyme source; from tissue; host or cells: human liver microsomes
From the text: as §1, §2

[2] = tested on: NCI-H358 non-small cell lung cancer cells; assay: Inhibition of NCI-H358 cell proliferation (CellTiter-Glo 3D, 7 days); format: cell-based; conditions: Homo sapiens, NCI-H358, 168 h, 3D microspheres, read-out: Inhibitory activity against NCI-H358 cell proliferation (IC50)
Method: The number of viable cells were detected by CellTiter-Glo 3D® reagent, thereby evaluating the inhibitory effect of compounds on cell proliferation. NCI-H358 non-small cell lung cancer cells (Nanjing cobioer) in the exponential growth phase were digested with trypsin-EDTA, and seeded into 96-well ultra-low attachment microplates at 100 µL per well with a density of 2000 cells/well. The cells were cultured overnight at 37°C with 5% CO2 to form microspheres. The test compounds were serially diluted 5-fold with DMSO to obtain 8 concentration gradient dilutions, then diluted with RPMI-1640 (10% FBS) cell culture medium respectively to obtain compound working solutions (2×). 100 µL per well was added to the cell supernatant, and the culture was continued for 7 days under the conditions of 37°C and 5% CO2. The well plate was removed, and 100 µL of CellTiter-Glo 3D® reagent was added. After lysis at room temperature for 10-30 minutes, 70 µL of the lysate was aspirated and transferred to a white opaque 384-well plate.
The inhibition rate was calculated by the following formula: [formula] Note: The negative control refers to the group without inhibitor, and the blank refers to the group without cells.
The inhibitory activities of some Example compounds and comparative compounds against NCI-H358 cell proliferation are shown in Table 2. Table 2. Inhibitory activity of some Example compounds against NCI-H358 cell proliferation

[3] = calculated from T1/2, fu defaulted to 1, read-out: CL(liver)
[4] = human liver microsomes, read-out: Inhibitory activity on drug-metabolizing enzymes (IC50, µM) CYP2C9
[5] = human liver microsomes, read-out: Inhibitory activity on drug-metabolizing enzymes (IC50, µM) CYP2C19

T2 sequence (P33261 whole entry): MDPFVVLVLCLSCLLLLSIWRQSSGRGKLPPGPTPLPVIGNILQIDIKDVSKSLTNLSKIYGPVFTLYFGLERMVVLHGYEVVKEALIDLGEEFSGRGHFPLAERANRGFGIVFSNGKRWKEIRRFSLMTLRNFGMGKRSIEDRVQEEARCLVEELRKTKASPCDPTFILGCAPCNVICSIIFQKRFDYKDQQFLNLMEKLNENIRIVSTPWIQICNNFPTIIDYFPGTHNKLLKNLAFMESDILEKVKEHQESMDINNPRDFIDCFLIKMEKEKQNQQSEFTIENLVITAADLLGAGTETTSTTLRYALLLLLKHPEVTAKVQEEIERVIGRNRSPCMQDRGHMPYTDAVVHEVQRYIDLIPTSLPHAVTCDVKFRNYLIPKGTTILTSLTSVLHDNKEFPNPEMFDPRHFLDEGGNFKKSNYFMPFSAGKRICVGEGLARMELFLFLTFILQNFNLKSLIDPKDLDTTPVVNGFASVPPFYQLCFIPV
T1 sequence (P11712 whole entry): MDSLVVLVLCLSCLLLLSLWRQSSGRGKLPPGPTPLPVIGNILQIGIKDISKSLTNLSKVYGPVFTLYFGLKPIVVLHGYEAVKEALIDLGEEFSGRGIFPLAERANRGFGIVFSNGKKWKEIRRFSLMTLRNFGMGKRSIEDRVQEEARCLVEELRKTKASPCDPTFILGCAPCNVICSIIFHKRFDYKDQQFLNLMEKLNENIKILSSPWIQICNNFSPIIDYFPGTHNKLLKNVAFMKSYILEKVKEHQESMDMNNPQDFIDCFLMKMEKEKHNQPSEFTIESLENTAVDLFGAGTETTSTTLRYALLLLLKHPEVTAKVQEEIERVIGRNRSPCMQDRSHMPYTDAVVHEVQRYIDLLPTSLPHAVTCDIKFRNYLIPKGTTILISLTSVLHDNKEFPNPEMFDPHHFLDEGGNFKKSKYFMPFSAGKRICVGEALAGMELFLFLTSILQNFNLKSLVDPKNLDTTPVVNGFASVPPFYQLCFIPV

CNc1nnc(N[C@H](C)c2cccc(C(F)F)c2F)c2cn(C3(C)CC3)c(=O)cc12.O=CO [Example 9, (R)-4-((1-(3-(difluoromethyl)-2-fluorophenyl)ethyl)amino)-1-(methylamino)-6-(1-methylcyclopropyl) pyrido[3,4-d]pyridazin-7(6H)-one formate]
half-life at 1 µM ([1]; NADPH, 37°C): 4.33 h
CLint scaled at 1 µM [1, 3]: 8.2 mL/min/kg
IC50 (CYP2C9; [4]): > 10 µM
IC50 (CYP2C19; [5]): > 10 µM
IC50 [2]: 0.0426 µM

CC(C)Nc1nnc(N[C@H](C)c2cccc(C(F)F)c2F)c2cn(C3(C)CC3)c(=O)cc12.O=CO [Example 12, (R)-4-((1-(3-(difluoromethyl)-2-fluorophenyl)ethyl)amino)-1-(isopropylamino)-6-(1-methylcyclopropyl) pyrido[3,4-d]pyridazin-7(6H)-one formate]
half-life at 1 µM ([1]; NADPH, 37°C): 2.5 h
CLint scaled at 1 µM [1, 3]: 12.8 mL/min/kg
IC50 (CYP2C9; [4]): > 10 µM
IC50 (CYP2C19; [5]): > 10 µM
IC50 [2]: 0.0363 µM

CNc1nnc(N[C@H](C)c2cccc(C(F)(F)F)c2C)c2cn(C3CC3)c(=O)cc12 [Example 52, (R)-6-cyclopropyl-4-((1-(2-methyl-3-(trifluoromethyl)phenyl)ethyl)amino)-1-(methylamino)pyrid o[3,4-d]pyridazin-7(6H)-one]
half-life at 1 µM ([1]; NADPH, 37°C): 1.41 h
CLint scaled at 1 µM [1, 3]: 19.2 mL/min/kg
IC50 (CYP2C9; [4]): > 10 µM
IC50 (CYP2C19; [5]): > 10 µM
IC50 [2]: 0.0615 µM

CNc1nnc(N[C@H](C)c2cccc(C(F)(F)F)c2C)c2cn(C3(C)CC3)c(=O)cc12 [Example 73, (R)-4-((1-(2-methyl-3-(trifluoromethyl)phenyl)ethyl)amino)-1-(methylamino)-6-(1-methylcyclopropyl) pyrido[3,4-d]pyridazin-7(6H)-one]
half-life at 1 µM ([1]; NADPH, 37°C): 1.59 h
CLint scaled at 1 µM [1, 3]: 17.7 mL/min/kg
IC50 (CYP2C9; [4]): > 10 µM
IC50 (CYP2C19; [5]): > 10 µM
IC50 [2]: 0.0147 µM

C[C@@H](Nc1nnc(N2CCN(C)CC2)c2cc(=O)n(C3CC3)cc12)c1cccc(C(F)F)c1F [Example 77]
half-life ([1]; NADPH, 37°C): > 5 h
CLint scaled [1, 3]: < 7.23 mL/min/kg
IC50 (CYP2C9): > 10 µM
IC50 (CYP2C19): > 10 µM
IC50 [2]: 0.0396 µM

C[C@@H](Nc1nnc(N2CCN(C)CC2)c2cc(=O)n(C3(C)CC3)cc12)c1cccc(C(F)F)c1F.O=CO [Example 80, (R)-4-((1-(3-(difluoromethyl)-2-fluorophenyl)ethyl)amino)-6-(1-methylcyclopropyl)-1-(4-methylpiperazin-1-yl)pyrido[3,4-d]pyridazin-7(6H)-one formate]
half-life at 1 µM ([1]; NADPH, 37°C): 2.68 h
CLint scaled at 1 µM [1, 3]: 12.1 mL/min/kg
IC50 (CYP2C9; [4]): > 10 µM
IC50 (CYP2C19; [5]): > 10 µM
IC50 [2]: 0.0208 µM

C[C@@H](Nc1nnc(N2CCN(C)CC2)c2cc(=O)n(C3CCC3)cc12)c1cccc(C(F)F)c1F [Example 88, (R)-6-cyclobutyl-4-((1-(3-(difluoromethyl)-2-fluorophenyl)ethyl)amino)-1-(4-methylpiperazin-1-yl)pyrido[3,4-d]pyridazin-7(6H)-one]
half-life at 1 µM ([1]; NADPH, 37°C): 2.13 h
CLint scaled at 1 µM [1, 3]: 14.4 mL/min/kg
IC50 (CYP2C9; [4]): > 10 µM
IC50 (CYP2C19; [5]): > 10 µM
IC50 [2]: 0.0231 µM

CCN1CCN(c2nnc(N[C@H](C)c3cccc(C(F)F)c3F)c3cn(C4CC(F)(F)C4)c(=O)cc23)CC1 [Example 98, (R)-6-(3,3-difluorocyclobutyl)-4-((1-(3-(difluoromethyl)-2-fluorophenyl)ethyl)amino)-1-(4-ethylpiperazin-1-yl)pyrido[3,4-d]pyridazin-7(6H)-one]
half-life at 1 µM ([1]; NADPH, 37°C): 3.12 h
CLint scaled at 1 µM [1, 3]: 10.8 mL/min/kg
IC50 (CYP2C9; [4]): > 10 µM
IC50 (CYP2C19; [5]): > 10 µM
IC50 [2]: 0.0376 µM

CCN1CCN(c2nnc(N[C@H](C)c3cccc(C(F)F)c3F)c3cn(N4CCOCC4)c(=O)cc23)CC1 [Example 109, (R)-4-((1-(3-(difluoromethyl)-2-fluorophenyl)ethyl)amino)-1-(4-ethylpiperazin-1-yl)-6-morpholinopyrido[3 ,4-d]pyridazin-7(6H)-one]
half-life at 1 µM ([1]; NADPH, 37°C): > 5 h
CLint scaled at 1 µM [1, 3]: < 7.23 mL/min/kg
IC50 (CYP2C9; [4]): > 10 µM
IC50 (CYP2C19; [5]): > 10 µM
IC50 [2]: 0.0166 µM

C[C@@H](Nc1nnc(N2CCN(C)CC2)c2cc(=O)n(N3CCOCC3)cc12)c1cccc(C(F)F)c1F [Example 110, (R)-4-((1-(3-(difluoromethyl)-2-fluorophenyl)ethyl)amino)-1-(4-methylpiperazin-1-yl)-6-morpholinopyrido[3 ,4-d]pyridazin-7(6H)-one]
half-life at 1 µM ([1]; NADPH, 37°C): > 5 h
CLint scaled at 1 µM [1, 3]: < 7.23 mL/min/kg
IC50 (CYP2C9; [4]): > 10 µM
IC50 (CYP2C19; [5]): > 10 µM
IC50 [2]: 0.0096 µM

CC(C)N1CCN(c2nnc(N[C@H](C)c3cccc(C(F)F)c3F)c3cn(N4CCOCC4)c(=O)cc23)CC1 [Example 111, (R)-4-((1-(3-(difluoromethyl)-2-fluorophenyl)ethyl)amino)-1-(4-isopropylpiperazin-1-yl)-6-morpholinopyrido[3 ,4-d]pyridazin-7(6H)-one]
half-life at 1 µM ([1]; NADPH, 37°C): > 5 h
CLint scaled at 1 µM [1, 3]: < 7.23 mL/min/kg
IC50 (CYP2C9; [4]): > 10 µM
IC50 (CYP2C19; [5]): > 10 µM
IC50 [2]: 0.0144 µM

CCN1CCN(c2nnc(N[C@H](C)c3cccc(C(F)F)c3F)c3cn(C4CCC4)c(=O)cc23)CC1 [Example 112, (R)-6-cyclobutyl-4-((1-(3-(difluoromethyl)-2-fluorophenyl)ethyl)amino)-1-(4-ethylpiperazin-1-yl)pyrido[3,4-d]pyridazin-7(6H)-one]
half-life at 1 µM ([1]; NADPH, 37°C): 3.32 h
CLint scaled at 1 µM [1, 3]: 10.2 mL/min/kg
IC50 (CYP2C9; [4]): > 10 µM
IC50 (CYP2C19; [5]): > 10 µM
IC50 [2]: 0.0202 µM

C[C@@H](Nc1nnc(N2CCN(C3CCCC3)CC2)c2cc(=O)n(N3CCOCC3)cc12)c1cccc(C(F)F)c1F [Example 120, (R)-4-((1-(3-(difluoromethyl)-2-fluorophenyl)ethyl)amino)-1-(4-cyclopentylpiperazin-1-yl)-6-morpholinopyrido[3 ,4-d]pyridazin-7(6H)-one]
half-life at 1 µM ([1]; NADPH, 37°C): > 5 h
CLint scaled at 1 µM [1, 3]: < 7.23 mL/min/kg
IC50 (CYP2C9; [4]): > 10 µM
IC50 (CYP2C19; [5]): > 10 µM
IC50 [2]: 0.0249 µM

CCN1CCN(c2nnc(N[C@H](C)c3cccc(C(F)F)c3F)c3cn(C4(C)CC4)c(=O)cc23)CC1 [Example 216, (R)-4-((1-(3-(difluoromethyl)-2-fluorophenyl)ethyl)amino)-1-(4-ethylpiperazin-1-yl)-6-(1-methylcyclopropyl) pyrido[3,4-d]pyridazin-7(6H)-one]
half-life at 1 µM ([1]; NADPH, 37°C): 4.85 h
CLint scaled at 1 µM [1, 3]: 7.43 mL/min/kg
IC50 (CYP2C9; [4]): > 10 µM
IC50 (CYP2C19; [5]): > 10 µM
IC50 [2]: 0.0364 µM

CC(C)N1CCN(c2nnc(N[C@H](C)c3cccc(C(F)F)c3F)c3cn(C4(C)CC4)c(=O)cc23)CC1 [Example 217, (R)-4-((1-(3-(difluoromethyl)-2-fluorophenyl)ethyl)amino)-1-(4-isopropylpiperazin-1-yl)-6-(1-methylcyclopropyl) pyrido[3,4-d]pyridazin-7(6H)-one]
half-life at 1 µM ([1]; NADPH, 37°C): 4.33 h
CLint scaled at 1 µM [1, 3]: 8.18 mL/min/kg
IC50 (CYP2C9; [4]): > 10 µM
IC50 (CYP2C19; [5]): > 10 µM
IC50 [2]: 0.0471 µM
